# Results published in patent US8961942B2, “Sunless tanning compositions with adjuvants comprising sulfur comprising moieties” (Conopco, Inc., priority 2011, dated 2015).
# Where a name gives a salt, the structure may show the parent alone.
# Test: In vitro color change (ΔE*) of adjuvant plus dihydroxyacetone formulations on synthetic skin
# Conditions: for ΔE* at 5.5 Hours / ΔE* at 29 Hours / ΔE* at 53 Hours: adjuvant at molar equivalent of 1% glycine with 2.5% dihydroxyacetone, pH 3.5, 5 μl/cm^2, 35° C. and 40% RH; for ΔE* at 5 hours / ΔE* at 21 hours / ΔE* at 46 hours: Example 4: total adjuvant at molar equivalent of 1% glycine, dihydroxyacetone 2.5%; for ΔE* at 5 hours: pH 3.5, 5 hours; for ΔE* at 21 hours: pH 3.5, 21 hours; for ΔE* at 46 hours: pH 3.5, 46 hours
# Procedure: Commercially available Vitro-Skin® (synthetic skin) was used as the substrate and pH of the adjuvant and dihydroxyacetone formulations were maintained at 3.5, adjusted with citric acid.
# The synthetic skin was pre-hydrated at 95% Relative Humidity (RH) for about 24 hours and then treated with formulations at a dosage of 5 μl/cm^2. The treated synthetic skin was stored at 35° C. and 40% RH for certain time frames, not exceeding 53 hours. Color development was monitored periodically after treatment using a HunterLab Labscan XE colorimeter. ΔE* is defined as √[(ΔL*)^2+(Δa+)^2+(Δb*)^2] where ΔL* is lightness change, Δa* is the change in +red/−green, Δb* is the change in […] and further where smaller ΔE* indicates less color change.
Structure (SMILES),ΔE* at 5.5 Hours,ΔE* at 29 Hours,ΔE* at 53 Hours,ΔE* at 5 hours,ΔE* at 21 hours,ΔE* at 46 hours
CSCCN [2-Methylthio-Ethylamine],22.0,32.0,36.0,,,
NCCS(=O)(=O)O [Taurine],17.0,33.0,36.0,9,26,28
"NCC(=O)O [Glycine, reference compound]",15.5,33.0,37.0,,,
NCCS(=O)O [Hypotaurine],8.0,21.0,26.0,,,
NCCOS(=O)(=O)O [2-Aminoethyl Hydrogen Sulfate],20.0,35.0,39.0,15,25,27
